Results taken from ChEMBL document CHEMBL6109066, “Synthesis, cytotoxic evaluation, and molecular docking of novel zerumbone oxime esters and azazerumbone derivatives” (Bioorg Med Chem Lett, 2025).
In brackets after ≈: the same amount, converted by molar mass.

Legend:
Type in all cases: functional, cell-based
HepG2 = assay: Cytotoxicity against human HepG2 cells
A549 = assay: Cytotoxicity against human A549 cells
HL-60 = assay: Cytotoxicity against human HL-60 cells
AGS = assay: Cytotoxicity against human AGS cells

Row | SMILES | IC50 (HepG2) | IC50 (A549) | IC50 (HL-60) | IC50 (AGS)
1 | C/C1=C\CC(C)(C)/C=C/C(=O)N/C(C)=C/CC1 | 27.4 mg/L (≈ 117 µM) | 56.9 mg/L (≈ 244 µM) | 9.84 mg/L (≈ 42.2 µM) | 39.6 mg/L (≈ 170 µM)
2 | C\C1=C/CC/C(C=O)=C/CC(C)(C)/C=C/C1=N/O | 64.1 mg/L (≈ 259 µM) | 91.8 mg/L (≈ 371 µM) | 37.7 mg/L (≈ 152 µM) | 53.9 mg/L (≈ 218 µM)
3 | C#CCN[C@@H]1CC/C(C)=C/CC(C)(C)/C=C/C(=O)[C@@H]1C | 6.52 mg/L (≈ 23.8 µM) | 32.2 mg/L (≈ 118 µM) | 9.59 mg/L (≈ 35.1 µM) | 11.5 mg/L (≈ 42 µM)
4 | COc1ccc(C(=O)O/N=C2/C=C/C(C)(C)C/C=C(\C)CC/C=C/2C)cc1 | 1.42 mg/L (≈ 3.86 µM) | 1.52 mg/L (≈ 4.14 µM) | 1.43 mg/L (≈ 3.89 µM) | 1.93 mg/L (≈ 5.25 µM)
5 | CC(=O)O/N=C1/C=C/C(C)(C)C/C=C(\C)CC/C=C/1C | 18.5 mg/L (≈ 67.3 µM) | 30.8 mg/L (≈ 112 µM) | 11 mg/L (≈ 39.9 µM) | 23.8 mg/L (≈ 86.3 µM)
6 | C/C1=C\CC(C)(C)/C=C/C(=N/OC(=O)c2ccc(Br)cc2)C(/C)=C/CC1 | 12.2 mg/L (≈ 29.4 µM) | 40.8 mg/L (≈ 97.9 µM) | 15.4 mg/L (≈ 36.9 µM) | 27.3 mg/L (≈ 65.6 µM)
7 | C/C1=C\CC(C)(C)/C=C/C(=N/OC(=O)[C@H](NC(=O)OC(C)(C)C)C(C)C)C(/C)=C/CC1 | 1.59 mg/L (≈ 3.68 µM) | 2.01 mg/L (≈ 4.65 µM) | 3.88 mg/L (≈ 8.97 µM) | 3.21 mg/L (≈ 7.42 µM)
8 | C/C1=C\CC(C)(C)/C=C/C(=N/OC(=O)c2ccccc2)C(/C)=C/CC1 | 3.64 mg/L (≈ 10.8 µM) | 14.3 mg/L (≈ 42.3 µM) | 6.63 mg/L (≈ 19.6 µM) | 10.5 mg/L (≈ 31.3 µM)
9 | COc1cc(C(=O)O/N=C2/C=C/C(C)(C)C/C=C(\C)CC/C=C/2C)ccc1OC(C)=O | 7.41 mg/L (≈ 17.4 µM) | 15.6 mg/L (≈ 36.8 µM) | 10.7 mg/L (≈ 25.2 µM) | 10 mg/L (≈ 23.5 µM)
10 | C/C1=C\CC(C)(C)/C=C/C(=N/OC(=O)c2cccc([N+](=O)[O-])c2)C(/C)=C/CC1 | 30.4 mg/L (≈ 79.5 µM) | 58.9 mg/L (≈ 154 µM) | 29.8 mg/L (≈ 77.8 µM) | 41.8 mg/L (≈ 109 µM)
11 | C/C1=C\CC(C)(C)/C=C/C(=N/OC(=O)c2cccc(Cl)c2)C(/C)=C/CC1 | 14.3 mg/L (≈ 38.4 µM) | 52.9 mg/L (≈ 142 µM) | 10.6 mg/L (≈ 28.5 µM) | 38.3 mg/L (≈ 103 µM)
12 | CC(=O)Oc1ccc(C(=O)O/N=C2/C=C/C(C)(C)C/C=C(\C)CC/C=C/2C)cc1 | 5.87 mg/L (≈ 14.8 µM) | 10.9 mg/L (≈ 27.5 µM) | 3.55 mg/L (≈ 8.98 µM) | 9.37 mg/L (≈ 23.7 µM)
13 | CC(=O)N1C(=O)/C=C/C(C)(C)C/C=C(\C)CC/C=C/1C | 32.9 mg/L (≈ 120 µM) | 44.1 mg/L (≈ 160 µM) | 4.5 mg/L (≈ 16.3 µM) | 9.02 mg/L (≈ 32.8 µM)
14 | C/C1=C\CC(C)(C)/C=C/C(=N/OC(=O)c2ccc([N+](=O)[O-])cc2)C(/C)=C/CC1 | 4.61 mg/L (≈ 12.1 µM) | 9.28 mg/L (≈ 24.3 µM) | 9.88 mg/L (≈ 25.8 µM) | 6.66 mg/L (≈ 17.4 µM)
15 | C/C1=C\CC(C)(C)/C=C/C(=N/O)C(/C)=C/CC1 | > 100 mg/L | > 100 mg/L | 45.5 mg/L (≈ 195 µM) | > 100 mg/L
16 | C/C1=C\CC(C)(C)/C=C/C(=N/OC(=O)[C@H](NC(=O)OC(C)(C)C)C(C)(C)C)C(/C)=C/CC1 | 1.15 mg/L (≈ 2.57 µM) | 1.37 mg/L (≈ 3.07 µM) | 0.41 mg/L (≈ 0.918 µM) | 1.5 mg/L (≈ 3.36 µM)
17 | C/C1=C\CC(C)(C)/C=C/C(=N/OC(=O)CCl)C(/C)=C/CC1 | 37.5 mg/L (≈ 121 µM) | 46.1 mg/L (≈ 149 µM) | 9.03 mg/L (≈ 29.1 µM) | 44.6 mg/L (≈ 144 µM)
18 | C/C1=C\CC(C)(C)/C=C/C(=O)[C@H](C)[C@H](Nc2ccc(Cl)cc2)CC1 | 56.2 mg/L (≈ 163 µM) | > 100 mg/L | 53.7 mg/L (≈ 155 µM) | > 100 mg/L
19 | C/C1=C\CC(C)(C)/C=C/C(=N/OC(=O)c2ccccc2O)C(/C)=C/CC1 | 4.2 mg/L (≈ 11.9 µM) | 12 mg/L (≈ 34 µM) | 3.99 mg/L (≈ 11.3 µM) | 9.04 mg/L (≈ 25.6 µM)
20 | Cc1c2ccncc2c(C)c2c1[nH]c1ccccc12 [ELLIPTECINE] | 0.33 mg/L (≈ 1.34 µM) | 0.39 mg/L (≈ 1.58 µM) | 0.35 mg/L (≈ 1.42 µM) | 0.4 mg/L (≈ 1.62 µM)
21 | C/C1=C\CC(C)(C)/C=C/C(=O)/C(C)=C/CC1 [ZERUMBONE] | 0.93 mg/L (≈ 4.26 µM) | 1.03 mg/L (≈ 4.72 µM) | 0.86 mg/L (≈ 3.94 µM) | 1.11 mg/L (≈ 5.08 µM)
